# Results taken from US20230381163A1, “DABIGATRAN COMPOSITIONS AND METHODS OF TREATING AGE-RELATED MACULAR DEGENERATION” (The United States Government As Represented By The …, priority 2022, published 2023).
# Key:
# [1] = system: AMD diagnosis in Medicare patients; experiment: MarketScan retrospective analysis of AMD diagnosis in dabigatran-exposed vs matched control Medicare patients; format: in vivo, human
# Text: Material and methods. MarketScan analysis: Population. A total of 41,860 dabigatran-exposed and 41,860 non-exposed controls, for a total of 83,720 Medicare patients were extracted from MarketScan® data from 2010-2015 and used in the analysis. Patients with an inpatient or outpatient record with a diagnosis of AMD (wet or dry) for the baseline period were excluded from inclusion in the data set. Patients who filled at least one prescription of dabigatran during the 2011-2012 exposure period were included in the dabigatran group. The date of the first filled prescription was designated as the Index Date. […] The first patient record date in randomly selected records from 2011 or 2012 was chosen as the Index Date for control group patients. Patients with <90 days of insurance coverage in the baseline period or <120 days of coverage in the study (exposure) period were excluded from the final cohort. The exposed and control patients were matched by age, sex, state of residence, Index Date, days in baseline period, and days in study period using 1:1 propensity score mating with a greedy algorithm and a caliper distance of 0.2.
# Survival and Statistical Analysis. Survival analysis was used (Schnabolk et al., 2019) to show differences in time until AMD diagnosis among dabigatran users and control subjects using the […] procedure. AMD diagnoses were identified using ICD-9 codes 362.5 (unspecified macular degeneration), 362.51 (dry AMD), and 362.52 (wet AMD). A period of ˜5 years (from Jul. 1, 2010, to Dec. 31, 2015) was used for this analysis, and preexisting AMD diagnosis was ruled out by requiring that the subjects be AMD free over the first ˜600 days (designated as baseline days or Base Days). Data on the matched control and dabigatran population were analyzed using multivariable logistic and Cox regression. Specifically, the odds of being diagnosed with AMD during the follow-up time, controlling for days of dabigatran exposure, and the proportional hazard rates of obtaining an AMD diagnosis in the dabigatran or control population as well as any baseline differences in demographics or comorbidities was compared (Charlson or Elixhouser diagnoses).
# Results. Association between Dabigatran Use and AMD Risk. The patient population consisted of 83,720 Medicare patients extracted from MarketScan® data from 2010-2015 as described herein, with 41,860 dabigatran-exposed and 41,860 non-exposed controls. The controls were matched on 33 baseline variables, including demographics and clinical characteristics (Schnabolk, G., et al. (2019). Invest Ophthalmol Vis Sci 60, 3520-3526) (Table 1).
# [2] = system: VEGF secretion in ARPE-19 cells; experiment: VEGF secretion into apical supernatant of ARPE-19 monolayers (ELISA); format: cell-based, human; settings: dabigatran, thrombin-treated cells
# Protocol: Cell culture experiments: Cells. […] Frontiers in Aging Neuroscience 9).
# VEGF ELISA. VEGF in the supernatant was measured using the Quantikine® Human VEGF Immunoassay (R & D System) according to the manufacturer's protocol. In brief, 200 μl of standard/sample was mixed with 50 μl of assay diluent and added to the plate precoated with the capture antibody. After washing, 200 μl of the VEGF detection antibody (polyclonal antibody specific for human VEGF conjugated to horseradish peroxidase) was added, followed by freshly prepared substrate reagents (stabilized hydrogen peroxide and tetramethylbenzidine). The reaction was terminated using 50 μl of stop solution and absorbance was measured at λ1 450 nm with wavelength correction λ2 at 540 nm. VEGF concentration of samples were calculated comparing the absorbance with the standards and converted into fold change considering the serum-free condition as 1 in the scale.
# [3] = system: C3d and C5b-9 deposition on ARPE-19 cells; experiment: C3d and MAC (C5b-9) deposition on ARPE-19 cell surfaces (immunofluorescence); settings: 10 μM, compared with thrombin-treated cells (20 U/mL)
# Protocol: ARPE-19 cells were grown on transwell membranes in 6 well plates (Thurman, J. M., et al. (2009). J Biol Chem 284, 16939-16947), treated with thrombin and inhibitors, and fixed in 4% paraformaldehyde for 15 min at room temperature. Primary antibodies against C5b-9 (1:200, Abcam) and C3d (1:100) (Thurman, J. M., et al. (2013). J Clin Invest 123, 2218-2230) were diluted in blocking buffer (10% normal goat serum, 3% BSA, 0.4% Triton X-100 in PBS) and cells were incubated for overnight at 4° C., followed by washes and incubation with goat anti-rabbit Alexa Fluor® 568—conjugated IgG or donkey anti-goat Alexa Fluor® 488-conjugated secondary antibodies (1:500; Thermo Fisher Scientific), respectively. Nuclei were identified with DAPI (Sigma-Aldrich). Transwell membranes were covered with aqua-mount mounting media (Thermo Scientific), cover slipped and photographed (Olympus 1X73 Research Inverted Microscope equipped with cellSens imaging software).
# First, it was tested whether thrombin results in deposition of C3d and the assembly of MAC on ARPE-19 cell surfaces. ARPE-19 cell monolayers were treated apically with thrombin and deposition of MAC (C5b-9; red) and C3d (green) were examined by immunofluorescence staining (FIG. 4A).
# [4] = 1-2 years exposure to dabigatran
# [5] = 2+ years exposure to dabigatran
structure (smiles),measurement,setting,value
CCCCCCOC(=O)NC(=N)c1ccc(NCc2nc3cc(C(=O)N(CCC(=O)OCC)c4ccccn4)ccc3n2C)cc1,% AMD per study year,[1]; [4],3.25%
same,% patients with a wet AMD diagnosis,[1]; [4],0.90%
same,% patients with an AMD diagnosis,[1]; [4],10.11%
same,% wet AMD per study year,[1]; [4],0.26%
same,risk of AMD by exposure strata (odds ratio vs controls),[1]; 1-2 years of dabigatran,0.64
same,% AMD per study year,[1]; [5],3.00%
same,% patients with a wet AMD diagnosis,[1]; [5],1.35%
same,% patients with an AMD diagnosis,[1]; [5],12.26%
same,% wet AMD per study year,[1]; [5],0.29%
same,risk of AMD by exposure strata (odds ratio vs controls),[1]; 2+ years of dabigatran,0.64
same,% AMD per study year,[1]; <1 year exposure to dabigatran,3.04%
same,% patients with a wet AMD diagnosis,[1]; <1 year exposure to dabigatran,0.75%
same,% patients with an AMD diagnosis,[1]; <1 year exposure to dabigatran,7.51%
same,% wet AMD per study year,[1]; <1 year exposure to dabigatran,0.28%
same,risk of AMD by exposure strata (odds ratio vs controls),[1]; <1 year of dabigatran,0.52
same,% AMD per study year,[1]; all dabigatran users,3.07%
same,% patients with a wet AMD diagnosis,[1]; all dabigatran users,0.91%
same,% patients with an AMD diagnosis,[1]; all dabigatran users,9.1%
same,% wet AMD per study year,[1]; all dabigatran users,0.28%
same,% patients with an AMD diagnosis,"[1]; all dabigatran users, listed as Dabigatran",9.10%
same,reduction of percent AMD per study year,[1]; dabigatran vs control group,~35%
same,reduction of percent patients with a wet AMD diagnosis,[1]; dabigatran vs control group,~60%
same,"hazard ratio, time to first recorded diagnosis of unspecified AMD","[1]; dabigatran vs matched controls, P<0.0001",0.63
same,"Days to AMD, Mean","[1]; dabigatran-exposed subjects, n 3810",562 days
same,"Wet Days, Mean","[1]; dabigatran-exposed subjects, n 38399",1047 days
same,"Dry Days, Mean","[1]; dabigatran-exposed subjects, n 41511",1011 days
same,"AMD Days, Mean","[1]; dabigatran-exposed subjects, n 41860",1007 days
same,odds ratio (OR) of AMD,"[1]; multivariable logistic regression controlling for age, sex, days in study, CI 0.55-0.61",0.58
same,reduction of thrombin-induced VEGF content,[2],~35%
same,reduction of C5b-9 deposition,[3],~50%
same,reduction of C3d deposition,[3],~60%
